Tests used:
[1] = target: T1, human GR (Homo sapiens, UniProt P04150); experiment: Trans-Activation Modulation of Glucocorticoid Receptor (GRAMMER), MMTV-LUC reporter gene; assay type: cell-based; design: endogenous in cells; conditions: for Emax: A549; for EC50: A549 cells, IP = inflection point
T1 sequence (P04150 1-777): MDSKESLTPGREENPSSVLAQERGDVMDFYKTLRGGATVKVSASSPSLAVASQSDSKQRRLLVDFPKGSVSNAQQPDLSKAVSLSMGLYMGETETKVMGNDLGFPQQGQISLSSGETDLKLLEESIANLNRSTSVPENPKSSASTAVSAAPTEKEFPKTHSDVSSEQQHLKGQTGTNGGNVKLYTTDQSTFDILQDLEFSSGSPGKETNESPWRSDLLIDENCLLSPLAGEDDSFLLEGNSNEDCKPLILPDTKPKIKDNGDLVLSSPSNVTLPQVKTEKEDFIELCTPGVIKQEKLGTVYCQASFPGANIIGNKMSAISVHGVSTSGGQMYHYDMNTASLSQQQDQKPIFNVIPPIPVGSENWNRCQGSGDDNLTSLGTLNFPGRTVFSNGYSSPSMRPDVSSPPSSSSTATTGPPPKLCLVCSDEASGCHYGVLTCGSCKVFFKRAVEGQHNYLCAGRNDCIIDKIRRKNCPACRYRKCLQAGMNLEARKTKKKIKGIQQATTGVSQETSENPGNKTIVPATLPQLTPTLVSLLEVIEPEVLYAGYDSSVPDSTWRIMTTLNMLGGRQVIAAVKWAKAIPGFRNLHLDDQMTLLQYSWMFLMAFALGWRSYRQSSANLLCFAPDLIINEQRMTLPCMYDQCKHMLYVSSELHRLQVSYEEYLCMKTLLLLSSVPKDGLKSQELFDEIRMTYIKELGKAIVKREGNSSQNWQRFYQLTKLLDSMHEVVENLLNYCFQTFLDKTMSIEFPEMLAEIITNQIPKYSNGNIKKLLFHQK
Description: Trans-Activation Modulation of Glucocorticoid Receptor (GRAMMER)
This assay assesses the ability of test compounds to control transcription from the MMTV-LUC reporter gene in lung adenocarcinoma A549 cells or HeLa cells, a human […] cell line that naturally expresses the human GR. The assay measures induction of a modified MMTV LTR/promoter linked to the LUC reporter gene.
The routine transient assay consists of plating 7,000-25,000 cells/well of a white, clear-bottom 96-well plate. Alternatively, 384-well plates can be used at a cell concentration of 10,000/well. The media that the cells are plated in is “exponential growth medium” which consists of phenol red-free RPMI1640 containing 10% FBS, 4 mM L-glutamine, 20 mM HEPES, 10 ug/mL human insulin, and 20 ug/mL gentamicin. Incubator conditions are 37° C. and 5% CO2. The transfection is done in batch mode. The cells are trypsinized and counted to the right cell number in the proper amount of fresh media. It is then gently mixed with the FuGene6/DNA mix and plated onto the 96 or 384-well plate, all the wells receive 100 uL or 40 uL, respectively, of medium+lipid/DNA complex then incubated 37° C. overnight. The transfection cocktail consists of serum-free OptiMEM, FuGene6 reagent and DNA. The manufacturer's (Roche Biochemical) protocol for cocktail setup is as follows: The lipid to DNA ratio is approximately 2.5:1 and the incubation time is 20 min at room temperature. Sixteen to 24 hours after transfection, the cells are treated with dexamethasone to a final concentration of 10 nM as well as the compound of interest, such that final DMSO (vehicle) concentration is equal to or less than 1%. Each plate also contains samples that are treated with 10 nM dexamethasone alone, which is used as the 100% activity control. The cells are exposed to the compounds for 24 hours. After 24 hours, the cells are lysed by a Promega cell culture lysis buffer for approximately 30 min and then the luciferase activity in the extracts is assayed in the 96-well format luminometer. In 384-well format, Steady-Glo (Promega) or Steady-Lite (PerkinElmer) can be used by adding an equal volume of reagent to the media present in each well. Activity induced by 10 nM dexamethasone alone is set at 100% activity. Antagonist activity is calculated by determining the decrease in dexamethasone-induced activity in response to compound treatment relative to samples that were treated with dexamethasone alone. […] This transactivation assay can be performed in an agonist and antagonist mode to identify these different activities. […]

[2] = target: T1, human GR; experiment: Transrepression Assay (GITAR), TNFα-β-lactamase reporter gene in U937 cells; assay type: cell-based; design: U937 cells contain an endogenous glucocorticoid receptor (GR); endogenous in cells; host or cells: U937 cells stably transfected with the TNF-α promoter/β-lactamase reporter only; conditions: for EC50: IP = inflection point; for GITAR > GRAMM % SEP: separation of GITAR Emax over GRAMMER Emax; for Emax: U-937
Procedure, shortened: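 Reporter readout used CCF2-AM loading for 70–90 min at room temperature after overnight (~18 h, 37 °C) PMA (5 ng/ml final) and LPS (100 ng/ml final) stimulation of compound-treated (30–45 min) TNFα-β-lactamase U937 cells expressing native GR. Activity was normalised to 100 nM dexamethasone repression.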

[3] = read-out: Transactivation A549 Cells GRAMMER Emax (%)
[4] = Table 1, read-out: Transactivation A549 Cells GRAMMER IP
[5] = Table 1, U937 cells, read-out: Transrepression U937 Cells GITAR IP
[6] = 100 nM dexamethasone = 100% activity, read-out: maximal activity in the transrepression assay
[7] = Table 1, U937 cells, activity repressed by 100 nM dexamethasone = 100%, read-out: Transrepression U937 Cells GITAR Emax (%)

C[C@]12Cc3cnn(-c4ccccc4)c3C=C1CC[C@@]2(O)CCc1ccccc1C(=O)NC1CC1 [Example 42, N-cyclopropyl-2-{2-[(4αS,5R)-5-hydroxy-4α-methyl-1-phenyl-1,4,4α,5,6,7-hexahydrocyclopenta[f]indazol-5-yl]ethyl}benzamide]
Emax [1, 3]: 51%
EC50 [1, 4]: 74 nM
EC50 [2, 5]: 122 nM
GITAR > GRAMM % SEP ([2]; Table 1): 13%
Emax [2, 6]: 5 to 100%
Emax [2, 7]: 64%

C[C@]12Cc3cnn(-c4ccccc4)c3C=C1CC[C@@]2(O)CCc1ccccc1C(N)=O [Example 43, 2-{2-[(4αS,5R)-5-hydroxy-4α-methyl-1-phenyl-1,4,4α,5,6,7-hexahydrocyclopenta[f]indazol-5-yl]ethyl}benzamide]
Emax [1, 3]: 59%
EC50 [1, 4]: 111 nM
EC50 [2, 5]: 98 nM
GITAR > GRAMM % SEP ([2]; Table 1): 9%
Emax [2, 6]: 5 to 100%
Emax [2, 7]: 68%

C=C(C)CNC(=O)c1c(F)cccc1CC[C@]1(O)CCC2=Cc3c(cnn3-c3ccc(F)cc3)C[C@@]21C [Example 44, 2-fluoro-6-{2-[(4αS,5R)-1-(4-fluorophenyl)-5-hydroxy-4α-methyl-1,4,4α,5,6,7-hexahydrocyclopenta[f]indazol-5-yl]ethyl}-N-(2-methylprop-2-en-1-yl)benzamide]
Emax [1, 3]: 24%
EC50 [1, 4]: 95 nM
EC50 [2, 5]: 119 nM
GITAR > GRAMM % SEP ([2]; Table 1): 43%
Emax [2, 6]: 5 to 100%
Emax [2, 7]: 67%

C[C@H](CNC(=O)c1ccccc1CC[C@]1(O)CCC2=Cc3c(cnn3-c3ccc(F)cc3)C[C@@]21C)C(F)(F)F [Example 45, 2-{2-[(4αS,5R)-1-(4-fluorophenyl)-5-hydroxy-4α-methyl-1,4,4α,5,6,7-hexahydrocyclopenta[f]indazol-5-yl]ethyl}-N-[(2R)-3,3,3-trifluoro-2-methylpropyl]benzamide]
Emax [1, 3]: 18%
EC50 [1, 4]: 183 nM
EC50 [2, 5]: 220 nM
GITAR > GRAMM % SEP ([2]; Table 1): 52%
Emax [2, 6]: 5 to 100%
Emax [2, 7]: 70%

C[C@]12Cc3cnn(-c4ccc(F)cc4)c3C=C1CC[C@@]2(O)CCc1ccc(F)cc1 [Example 46 WO 2004/075840 A2, reference compound]
Emax ([1]; read-out: Transactiviation A549 Cells GRAMMER Emax (%)): 26%
EC50 ([1]; Table 2, read-out: Transactiviation A549 Cells GRAMMER IP): 571 nM
EC50 ([2]; Table 2, U937 cells, read-out: Transactiviation U937 Cells GITAR IP): 596 nM
GITAR > GRAMM % SEP ([2]; Table 2): 44%
Emax ([2]; Table 2, U937 cells, activity repressed by 100 nM dexamethasone = 100%, read-out: Transactiviation U937 Cells GITAR Emax (%)): 71%

C[C@]12Cc3cnn(-c4ccc(F)cc4)c3C=C1CC[C@@]2(O)CCc1ccccc1C(=O)N1CCCCC1 [Example 46, (4αS,5R)-1-(4-fluorophenyl)-4α-methyl-5-{2-[2-(piperidin-1-ylcarbonyl)phenyl]ethyl}-1,4,4α,5,6,7-hexahydrocyclopenta[f]indazol-5-ol]
Emax [1, 3]: 54%
EC50 [1, 4]: 176 nM
EC50 [2, 5]: 248 nM
GITAR > GRAMM % SEP ([2]; Table 1): 17%
Emax [2, 6]: 5 to 100%
Emax [2, 7]: 70%

C[C@]12Cc3cnn(-c4ccc(F)cc4)c3C=C1CC[C@@]2(O)CCc1ccccc1C(=O)N1CCCC1 [Example 47, (4αS,5R)-1-(4-fluorophenyl)-4α-methyl-5-{2-[2-(pyrrolidin-1-ylcarbonyl)phenyl]ethyl}-1,4,4α,5,6,7-hexahydrocyclopenta[f]indazol-5-ol]
Emax [1, 3]: 59%
EC50 [1, 4]: 196 nM
EC50 [2, 5]: 205 nM
GITAR > GRAMM % SEP ([2]; Table 1): 12%
Emax [2, 6]: 5 to 100%
Emax [2, 7]: 71%

CC(C)[C@@H](C)NC(=O)c1c(F)cccc1CC[C@]1(O)CCC2=Cc3c(cnn3-c3ccc(F)cc3)C[C@@]21C [Example 48, N-[(1R)-1,2-dimethylpropyl]-2-fluoro-6-{2-[(4αS,5R)-1-(4-fluorophenyl)-5-hydroxy-4α-methyl-1,4,4α,5,6,7-hexahydrocyclopenta[f]indazol-5-yl]ethyl}benzamide]
Emax [1, 3]: 13%
EC50 [1, 4]: 94 nM
EC50 [2, 5]: 198 nM
GITAR > GRAMM % SEP ([2]; Table 1): 59%
Emax [2, 6]: 5 to 100%
Emax [2, 7]: 72%

CCCNC(=O)c1c(F)cccc1CC[C@]1(O)CCC2=Cc3c(cnn3-c3ccc(F)cc3)C[C@@]21C [Example 49, 2-fluoro-6-{2-[(4αS,5R)-1-(4-fluorophenyl)-5-hydroxy-4α-methyl-1,4,4α,5,6,7-hexahydrocyclopenta[f]indazol-5-yl]ethyl}-N-propylbenzamide]
Emax [1, 3]: 25%
EC50 [1, 4]: 26 nM
EC50 [2, 5]: 30 nM
GITAR > GRAMM % SEP ([2]; Table 1): 47%
Emax [2, 6]: 5 to 100%
Emax [2, 7]: 72%

CCNC(=O)c1ccccc1CC[C@]1(O)CCC2=Cc3c(cnn3-c3ccc(F)c(F)c3)C[C@@]21C [Example 51, 2-{2-[(4αS,5R)-1-(3,4-difluorophenyl)-5-hydroxy-4α-methyl-1,4,4α,5,6,7-hexahydrocyclopenta[f]indazol-5-yl]ethyl}-N-ethylbenzamide]
Emax [1, 3]: 30%
EC50 [1, 4]: 164 nM
EC50 [2, 5]: 193 nM
GITAR > GRAMM % SEP ([2]; Table 1): 42%
Emax [2, 6]: 5 to 100%
Emax [2, 7]: 73%

COC(=O)C(C)(C)NC(=O)c1ccccc1CC[C@]1(O)CCC2=Cc3c(cnn3-c3ccc(F)cc3)C[C@@]21C [Example 52, methyl N-(2-{2-[(4αS,5R)-1-(4-fluorophenyl)-5-hydroxy-4α-methyl-1,4,4α,5,6,7-hexahydrocyclopenta[f]indazol-5-yl]ethyl}benzoyl)-2-methylalaninate]
Emax [1, 3]: 45%
EC50 [1, 4]: 21 nM
EC50 [2, 5]: 154 nM
GITAR > GRAMM % SEP ([2]; Table 1): 29%
Emax [2, 6]: 5 to 100%
Emax [2, 7]: 74%

CC(C)(C)CNC(=O)c1c(F)cccc1CC[C@]1(O)CCC2=Cc3c(cnn3-c3ccc(F)cc3)C[C@@]21C [Example 55, N-(2,2-dimethylpropyl)-2-fluoro-6-{2-[(4αS,5R)-1-(4-fluorophenyl)-5-hydroxy-4α-methyl-1,4,4α,5,6,7-hexahydrocyclopenta[f]indazol-5-yl]ethyl}benzamide]
Emax [1, 3]: 23%
EC50 [1, 4]: 173 nM
EC50 [2, 5]: 187 nM
GITAR > GRAMM % SEP ([2]; Table 1): 53%
Emax [2, 6]: 5 to 100%
Emax [2, 7]: 76%

C=CCNC(=O)c1c(F)cccc1CC[C@]1(O)CCC2=Cc3c(cnn3-c3ccc(F)cc3)C[C@@]21C [Example 57, N-allyl-2-fluoro-6-{2-[(4αS,5R)-1-(4-fluorophenyl)-5-hydroxy-4α-methyl-1,4,4α,5,6,7-hexahydrocyclopenta[f]indazol-5-yl]ethyl}benzamide]
Emax [1, 3]: 37%
EC50 [1, 4]: 24 nM
EC50 [2, 5]: 30 nM
GITAR > GRAMM % SEP ([2]; Table 1): 40%
Emax [2, 6]: 5 to 100%
Emax [2, 7]: 77%

Reference: US8119681B2, “2-[1-phenyl-5-hydroxy or methoxy-4alpha-methyl-hexahydrocyclopenta [ƒ]indazole-5-YL]ethyl phenyl derivatives as glucocorticoid receptor ligands” (Merck Sharp & Dohme Corp., priority 2006, dated 2012)
